Values of other authors, collected in patent publication US9770423B2, “Modulation sAPP, sAAPα and BDNF levels in individuals diagnosed with FXS and ASD” (Indiana University Research and Technology Corp., priority 2012, dated 2017).

Assays:
subjects with FXS = settings: cited from earlier work
fmr1 knockout mouse = settings: literature; cited from earlier work
males with FXS = settings: cited from earlier work
[1] = test system: drinking-in-the-dark mouse model; settings: cited from earlier work
adults with FXS = settings: single dose, cited from earlier work
[2] = test system: cerebellar granule cells from FMR1 knockout mice; settings: cultured cerebellar granule cells from FMR1 knockout mice; cited from earlier work
[3] = test system: persons with FXS and comorbid ASD; settings: cited from earlier work

Question: Which “ABC-SW and VABS Socialization, post-hoc subset” value (subjects with FXS; 27 subject subset with baseline ABC-SW score of ≧8) does the source give for `NC[C@H](CC(=O)O)c1ccc(Cl)cc1` (single isomer, unassigned) [STX209] here?
Answer: significant STX209-associated improvement

Question: And the “primary outcome measure, ABC Irritability (ABC-I) subscale” value (subjects with FXS; 63 subjects aged 6 to 40 years with FXS)?
Answer: not associated with improvement

Question: What about the “Social Avoidance scale (ABC-SA), post-hoc analysis” value (subjects with FXS; 63 subjects with FXS) of the same compound?
Answer: significant group-wide improvement

Question: And the “global measures (CGI-I, CGI-S), other ABC subscales, Visual Analog Scale” value (subjects with FXS; 63 subjects with FXS)?
Answer: Group-wide effects were also not noted

Question: And the subjects reporting sedation (subjects with FXS; 63 subjects with FXS)?
Answer: 8%

Question: What about the “effect on phenotype of fmr1 knockout mice” value (“effect on phenotype” for short) (fmr1 knockout mouse) of the same compound?
Answer: correction of aberrant protein synthesis and dendritic spine abnormalities

Question: What does the source list for `COC(=O)N1CC[C@@H]2[C@H]1CCC[C@@]2(O)C#Cc1cccc(C)c1` [AFQ056]?
Answer: response in subset with full FMR1 gene methylation (ABC, CGI-I, Visual Analogue Scale, Repetitive Behavior Scale-Revised) (males with FXS; 7 subject subset): significant response to AFQ056 compared to placebo; group treatment effect (males with FXS; 30 males with FXS aged 18 to 35 years): not associated with significant group treatment effect

Question: Which “effect on phenotype” value (fmr1 knockout mouse) does the source give for `Cc1cccc(C#Cc2ccccc2)n1` [MPEP, 2-methyl-6-(phenylethynyl)-pyridine] here?
Answer: reverse phenotypic characteristics, including audiogenic seizures, altered pre-pulse inhibition (PPI), and open field hyperactivity

Question: With `Cc1nc(C#Cc2cccnc2)cs1` [MTEP, 3-((2-Methyl-4-thiazolyl)ethynyl)pyridine] as the compound, how does the alcohol intake [1] read?
Answer: reduced alcohol intake

Question: Which “effect on phenotype” value (fmr1 knockout mouse) does the source give for `CC(=O)[C@H]1CC[C@H]2[C@@H]3CC[C@H]4C[C@H](O)CC[C@]4(C)[C@H]3C(=O)C[C@]12C` [alphaxalone] here?
Answer: reductions in anxiety and rescue of audiogenic seizures

Question: With `CN1CC(=O)NC1=NC(=O)Nc1cccc(Cl)c1` [fenobam] as the compound, how does the “subjects experiencing mild sedation” value (adults with FXS; 3 of 12 adults with FXS) read?
Answer: 25%

Question: And the “subjects who experienced clinical benefit” value (adults with FXS; 9 of 12 adults with FXS, reductions in hyperactivity and anxiety)?
Answer: 75%

Question: And the pharmacokinetics (adults with FXS; 12 adults with FXS)?
Answer: variable pharmacokinetics

Question: What about the tolerability (adults with FXS; 12 adults with FXS) of the same compound?
Answer: good tolerability

Question: For `Oc1noc2c1CCNC2` [gaboxadol], which “effect on phenotype” value (fmr1 knockout mouse) is on record?
Answer: restored neuron excitability deficits in the amygdala, reduced hyperactivity, and reduced PPI deficits

Question: For `CC12CC3CC(C)(C1)CC(N)(C3)C2` [memantine], which “dendritic spine development and synapse formation” value [2] is on record?
Answer: correction of dendritic spine development and synapse formation

Question: What about the “subjects with clinical response (CGI-I very much improved or much improved)” value ([3]; four of 6 persons with FXS and comorbid ASD) of the same compound?
Answer: 67%

Question: And the “subjects with treatment limiting irritability” value ([3]; of 6 persons)?
Answer: Two subjects

Question: With `NCCS(=O)(=O)O` [taurine] as the compound, how does the “effect on phenotype” value (fmr1 knockout mouse) read?
Answer: Improvements in memory acquisition and retention
